Results: ChEMBL document CHEMBL1201862, “PubChem BioAssay data set” (2004)
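Values below derive from 48-hour exposures of cells grown in 96-well plates, with endpoints linearly interpolated between the two concentrations bracketing the appropriate inhibition level. The concentration for 50% growth inhibition is given as GI50.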 Active and inactive are the calls of the source. Cut-off read from the data, not from the text of the source: active = GI50 up to about 1.1 µM and inactive = higher.

Assays:
Test in all cases: inhibition of tumour cell growth, NCI panel, 48 h
[1] = tested on: NCI-H522
[2] = tested on: SK-MEL-5
[3] = tested on: RXF 393
[4] = tested on: NCI/ADR-RES
[5] = tested on: OVCAR-8
[6] = tested on: DU-145
[7] = tested on: HT-29
[8] = tested on: NCI-H460
[9] = tested on: TK-10
[10] = tested on: ACHN
[11] = tested on: COLO 205
[12] = tested on: MDA-N
[13] = tested on: NCI-H226
[14] = tested on: MCF7
[15] = tested on: PC-3
[16] = tested on: OVCAR-5
[17] = tested on: UACC-62
[18] = tested on: SF-268
[19] = tested on: SF-539
[20] = tested on: UACC-257

SMILES	GI50 [1]	GI50 [2]	GI50 [3]	GI50 [4]	GI50 [5]	GI50 [6]	GI50 [7]	GI50 [8]	GI50 [9]	GI50 [10]	GI50 [11]	GI50 [12]	GI50 [13]	GI50 [14]	GI50 [15]	GI50 [16]	GI50 [17]	GI50 [18]	GI50 [19]	GI50 [20]
Nc1nn2c(C(Br)Br)cc(C(Br)Br)nc2c1[N+](=O)[O-]	0.37 µM (active)	1.49 µM (inactive)	1.37 µM (inactive)	2.78 µM (inactive)	0.962 µM (active)	1.68 µM (inactive)	0.766 µM (active)	2.41 µM (inactive)	0.971 µM (active)	0.861 µM (active)	0.659 µM (active)	1.34 µM (inactive)	2.21 µM (inactive)	0.826 µM (active)	1.36 µM (inactive)	1.72 µM (inactive)	1.81 µM (inactive)	1.88 µM (inactive)	0.785 µM (active)	1.32 µM (inactive)
COC/C=C\[C@@]1(O)CCCC[C@@H]1CC(OC)OC	17.5 µM (inactive)	> 94.2 µM (inactive)	> 54.3 µM (inactive)	38.2 µM (inactive)	29.9 µM (inactive)	38.5 µM (inactive)	> 59.6 µM (inactive)	33.3 µM (inactive)	> 100 µM (inactive)	10.1 µM (inactive)	> 95.5 µM (inactive)	33.7 µM (inactive)	> 59.2 µM (inactive)	2.75 µM (inactive)	49.5 µM (inactive)	> 100 µM (inactive)	11.7 µM (inactive)	30.2 µM (inactive)	48.5 µM (inactive)	> 100 µM (inactive)
CCOC(=O)N1c2ccccc2S(=O)(=O)c2ccccc21	> 100 µM (inactive)	> 100 µM (inactive)	> 100 µM (inactive)	> 100 µM (inactive)	> 100 µM (inactive)	> 100 µM (inactive)	> 100 µM (inactive)	> 100 µM (inactive)	> 100 µM (inactive)	> 100 µM (inactive)	> 100 µM (inactive)	> 100 µM (inactive)	> 100 µM (inactive)	> 100 µM (inactive)	> 100 µM (inactive)	> 100 µM (inactive)	> 100 µM (inactive)	> 100 µM (inactive)	> 100 µM (inactive)	> 100 µM (inactive)
O=C(CCCC1Cc2ccccc2C1=O)c1ccccc1 (stereo not given)	52.7 µM (inactive)	35.6 µM (inactive)	52.5 µM (inactive)	26.9 µM (inactive)	79.6 µM (inactive)	> 100 µM (inactive)	42.2 µM (inactive)	89.9 µM (inactive)	84.5 µM (inactive)	98.4 µM (inactive)	93.8 µM (inactive)	66.2 µM (inactive)	70.1 µM (inactive)	31.2 µM (inactive)	35.1 µM (inactive)	> 100 µM (inactive)	69.5 µM (inactive)	> 100 µM (inactive)	> 100 µM (inactive)	46.2 µM (inactive)
COc1c2c(cc3c1C1(O)Cc4ccc5c(c4C[N+]1(C)CC3)OCO5)OCO2 (stereo not given)	72.9 µM (inactive)	> 100 µM (inactive)	43.9 µM (inactive)	> 100 µM (inactive)	> 100 µM (inactive)	> 100 µM (inactive)	33.9 µM (inactive)	88.1 µM (inactive)	> 100 µM (inactive)	> 100 µM (inactive)	58.5 µM (inactive)	> 100 µM (inactive)	> 100 µM (inactive)	> 100 µM (inactive)	73.5 µM (inactive)	> 100 µM (inactive)	> 100 µM (inactive)	> 100 µM (inactive)	> 100 µM (inactive)	> 100 µM (inactive)
Nc1nc(Cl)cc(NCCC2(CO)CCC2)n1	> 100 µM (inactive)	> 100 µM (inactive)	> 100 µM (inactive)	> 100 µM (inactive)	> 100 µM (inactive)	> 100 µM (inactive)	> 100 µM (inactive)	> 100 µM (inactive)	> 100 µM (inactive)	> 100 µM (inactive)	> 100 µM (inactive)	> 100 µM (inactive)	> 100 µM (inactive)	> 100 µM (inactive)	> 100 µM (inactive)	> 100 µM (inactive)	> 100 µM (inactive)	> 100 µM (inactive)	> 100 µM (inactive)	> 100 µM (inactive)
Nc1ccc2c(=O)cc(-c3ccc(Br)s3)[nH]c2n1	1.42 µM (inactive)	1.35 µM (inactive)	3.71 µM (inactive)	2.6 µM (inactive)	3.52 µM (inactive)	3.93 µM (inactive)	4.74 µM (inactive)	4.16 µM (inactive)	11.7 µM (inactive)	7.16 µM (inactive)	2.5 µM (inactive)	0.323 µM (active)	2.15 µM (inactive)	2.15 µM (inactive)	2.74 µM (inactive)	11.6 µM (inactive)	3.02 µM (inactive)	6.22 µM (inactive)	2.16 µM (inactive)	> 27.7 µM (inactive)
